Measured values published in ChEMBL document CHEMBL1147281, “Antimicrobial and cytotoxic activity of rottlerin-type compounds from Hypericum drummondii” (1989).
≈ marks a conversion by molar mass, not a printed value.

Key:
Type in all cases: functional
Pseudomonas aeruginosa = experiment: Antimicrobial activity against Pseudomonas aeruginosa after 48 hrs by twofold serial dilution method
[1] = Cytotoxicity against human melanoma cells after 72 hrs; details: Melanoma cell, read-out: ED50 (the source's name)
[2] = Cytotoxicity against human lung cancer cells after 72 hrs; details: Cancer cell lines, read-out: ED50 (the source's name)
[3] = system: Mycolicibacterium smegmatis; experiment: Antimicrobial activity against Mycobacterium smegmatis ATCC 607 after 48 hrs by twofold serial dilution method; details: ATCC 607, 48 h
P388 = experiment: Cytotoxicity against mouse P388 cells after 48 hrs; details: P388, 48 h, read-out: ED50 (the source's name)
KB = experiment: Cytotoxicity against human KB cells after 72 hrs; details: read-out: ED50 (the source's name)
[4] = Cytotoxicity against human colon cancer cells after 72 hrs; details: Cancer cell lines, read-out: ED50 (the source's name)
[5] = Cytotoxicity against human breast cancer cells after 72 hrs; details: Cancer cell lines, read-out: ED50 (the source's name)
Bacillus subtilis = experiment: Antimicrobial activity against Bacillus subtilis ATCC 6633 after 24 hrs by twofold serial dilution method; details: ATCC 6633, 24 h
Staphylococcus aureus = experiment: Antimicrobial activity against Staphylococcus aureus ATCC 6538 after 24 hrs by twofold serial dilution method; details: ATCC 6538, 24 h
Escherichia coli = experiment: Antimicrobial activity against Escherichia coli after 48 hrs by twofold serial dilution method

In the case of `CCC(=O)C1=C(O)C(C)(C)C(O)=C(CC2=C(O)C(C)(C)C(O)=C(C(=O)CC)C2=O)C1=O`, the MIC (Pseudomonas aeruginosa) is reported as > 100 µg/mL, the EC50 [1] is reported as > 50 µg/mL and the EC50 [2] is reported as > 50 µg/mL. For the same compound, the MIC [3] was 50 µg/mL (≈ 116 µM), the EC50 (P388) was > 50 µg/mL and the EC50 (KB) was > 50 µg/mL. For the same compound, the EC50 [4] was > 50 µg/mL, the EC50 [5] was > 50 µg/mL and the MIC (Bacillus subtilis) was 12.5 µg/mL (≈ 28.9 µM). The MIC (Staphylococcus aureus) was 50 µg/mL (≈ 116 µM) and the MIC (Escherichia coli) was > 100 µg/mL.

In the case of `CC(=O)C1=C(O)C(C)(C)C(O)=C(CC2=C(O)C(C)(C)C(O)=C(C(C)=O)C2=O)C1=O`, the MIC (Pseudomonas aeruginosa) is reported as > 100 µg/mL, the EC50 [1] is reported as > 50 µg/mL and the EC50 [2] is reported as > 50 µg/mL. For the same compound, the MIC [3] was 100 µg/mL (≈ 247 µM), the EC50 (P388) was > 50 µg/mL and the EC50 (KB) was > 50 µg/mL. The EC50 [4] was > 50 µg/mL, the EC50 [5] was > 50 µg/mL and the MIC (Bacillus subtilis) was 50 µg/mL (≈ 124 µM). For the same compound, the MIC (Staphylococcus aureus) was 100 µg/mL (≈ 247 µM) and the MIC (Escherichia coli) was > 100 µg/mL.

With `CCC(=O)C1=C(O)C(C)(C)C(O)=C(Cc2c(O)c3c(c(C(=O)CC)c2O)OC(C)(C)C=C3)C1=O` [DRUMMONDIN A] the MIC (Pseudomonas aeruginosa) was > 100 µg/mL, the EC50 [1] was 8 µg/mL (≈ 17 µM) and the EC50 [2] was 4.5 µg/mL (≈ 9.56 µM). The MIC [3] was 1.56 µg/mL (≈ 3.32 µM), the EC50 (P388) was 2.1 µg/mL (≈ 4.46 µM) and the EC50 (KB) was 4.5 µg/mL (≈ 9.56 µM). It also gave an EC50 [4] of 6.6 µg/mL (≈ 14 µM), an EC50 [5] of 3.4 µg/mL (≈ 7.23 µM) and an MIC (Bacillus subtilis) of 0.78 µg/mL (≈ 1.66 µM). For the same compound, the MIC (Staphylococcus aureus) was 1.56 µg/mL (≈ 3.32 µM) and the MIC (Escherichia coli) was > 100 µg/mL.

For `CCC(=O)C1=C(O)C(C)(C)C(O)=C(Cc2c(O)c3c(c(C(C)=O)c2O)OC(C)(C)C=C3)C1=O` [DRUMMONDIN B], the MIC (Pseudomonas aeruginosa) was > 100 µg/mL, the EC50 [1] was 5 µg/mL (≈ 11 µM) and the EC50 [2] was 7 µg/mL (≈ 15.3 µM). It also gave an MIC [3] of 1.56 µg/mL (≈ 3.42 µM), an EC50 (P388) of 1.9 µg/mL (≈ 4.16 µM) and an EC50 (KB) of 3.1 µg/mL (≈ 6.79 µM). The EC50 [4] was 6.3 µg/mL (≈ 13.8 µM), the MIC (Bacillus subtilis) was 0.39 µg/mL (≈ 0.854 µM) and the MIC (Staphylococcus aureus) was 3.12 µg/mL (≈ 6.83 µM). The MIC (Escherichia coli) was > 100 µg/mL.

For `CC(=O)C1=C(O)C(C)(C)C(O)=C(Cc2c(O)c3c(c(C(C)=O)c2O)OC(C)(C)C=C3)C1=O` [DRUMMONDIN C], the MIC (Pseudomonas aeruginosa) was > 100 µg/mL, the EC50 [1] was 12 µg/mL (≈ 27.1 µM) and the EC50 [2] was 8.7 µg/mL (≈ 19.7 µM). It also gave an MIC [3] of 6.25 µg/mL (≈ 14.1 µM), an EC50 (P388) of 2.8 µg/mL (≈ 6.33 µM) and an EC50 (KB) of 8.6 µg/mL (≈ 19.4 µM). The EC50 [4] was 11 µg/mL (≈ 24.9 µM), the EC50 [5] was 5.1 µg/mL (≈ 11.5 µM) and the MIC (Bacillus subtilis) was 0.78 µg/mL (≈ 1.76 µM). The MIC (Staphylococcus aureus) was 3.12 µg/mL (≈ 7.05 µM) and the MIC (Escherichia coli) was > 100 µg/mL.

With `CC(=O)C1=C(O)C(C)(CC=C(C)C)C(O)=C(Cc2c(O)c(CC=C(C)C)c(O)c(C(C)=O)c2O)C1=O` (stereo not drawn) [DRUMMONDIN F] the MIC (Pseudomonas aeruginosa) was > 100 µg/mL, the EC50 [1] was > 50 µg/mL and the EC50 [2] was 30 µg/mL (≈ 60.2 µM). It also gave an MIC [3] of 1.56 µg/mL (≈ 3.13 µM), an EC50 (P388) of 21 µg/mL (≈ 42.1 µM) and an EC50 (KB) of 18 µg/mL (≈ 36.1 µM). The EC50 [4] was 42 µg/mL (≈ 84.2 µM), the EC50 [5] was 21 µg/mL (≈ 42.1 µM) and the MIC (Bacillus subtilis) was 0.78 µg/mL (≈ 1.56 µM). The MIC (Staphylococcus aureus) was 0.78 µg/mL (≈ 1.56 µM) and the MIC (Escherichia coli) was > 100 µg/mL.

Compound `CN[C@@H]1[C@H](O[C@H]2[C@H](O[C@H]3[C@H](O)[C@@H](O)[C@H](N=C(N)N)[C@@H](O)[C@@H]3N=C(N)N)O[C@@H](C)[C@]2(O)C=O)O[C@@H](CO)[C@H](O)[C@H]1O` [STREPTOMYCIN] has an MIC [3] of 3.12 µg/mL (≈ 5.36 µM), an MIC (Bacillus subtilis) of 0.78 µg/mL (≈ 1.34 µM) and an MIC (Staphylococcus aureus) of 6.25 µg/mL (≈ 10.7 µM).
